According to US12226412B2, “Heteroaryl-ketone fused azadecalin glucocorticoid receptor modulators” (Corcept Therapeutics, Inc., priority 2012, dated 2025):
Like-named read-outs stand apart in the source and are kept apart here.

What was measured:
human recombinant GR = molecular target: T1, human recombinant GR (Homo sapiens, UniProt P04150); test: Human glucocorticoid receptor (GR) fluorescence polarisation (FP) binding assay
T1 construct: purchased PanVera P2812
T1 sequence (P04150 1-777): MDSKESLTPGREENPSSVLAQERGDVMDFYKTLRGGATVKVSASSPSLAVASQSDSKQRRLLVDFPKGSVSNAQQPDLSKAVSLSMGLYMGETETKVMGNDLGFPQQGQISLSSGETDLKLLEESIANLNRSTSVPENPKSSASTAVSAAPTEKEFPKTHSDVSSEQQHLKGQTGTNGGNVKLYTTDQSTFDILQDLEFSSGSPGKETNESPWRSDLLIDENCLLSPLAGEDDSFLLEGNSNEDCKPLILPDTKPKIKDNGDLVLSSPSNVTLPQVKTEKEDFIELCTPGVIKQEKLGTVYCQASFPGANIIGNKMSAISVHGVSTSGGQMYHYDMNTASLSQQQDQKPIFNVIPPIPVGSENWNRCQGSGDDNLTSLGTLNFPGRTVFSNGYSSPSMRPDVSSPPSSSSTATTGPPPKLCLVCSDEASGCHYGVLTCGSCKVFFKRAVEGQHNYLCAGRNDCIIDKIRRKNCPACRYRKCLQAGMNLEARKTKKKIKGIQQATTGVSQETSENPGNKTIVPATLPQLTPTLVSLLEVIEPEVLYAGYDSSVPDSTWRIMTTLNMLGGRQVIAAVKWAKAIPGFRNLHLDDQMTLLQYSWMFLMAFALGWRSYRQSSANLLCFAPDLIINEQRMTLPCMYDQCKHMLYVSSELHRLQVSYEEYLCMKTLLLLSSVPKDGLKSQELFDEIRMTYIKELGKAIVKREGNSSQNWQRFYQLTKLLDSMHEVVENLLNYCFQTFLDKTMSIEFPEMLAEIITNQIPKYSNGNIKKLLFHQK
Method in brief: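 Competition fluorescence polarisation: 0.5 nM GS Red labelled glucocorticoid and 1 nM recombinant human GR with 8-point half-log compound series, 1% DMSO, 4 h room temperature, potassium phosphate pH 7.4 buffer with molybdate, EDTA, DTT. Affinity derived from the drop in polarisation, normalised to blank wells.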

[1] = system: induction of TAT by dexamethasone in HepG2 cells; test: HepG2 tyrosine aminotransferase (TAT) assay; type: cell-based, human
[2] = human recombinant GR, fluorescence polarisation binding assay, read-out: GR binding
[3] = HepG2 cells, challenge of 100 nM dexamethasone, Ki from IC50 by Cheng and Prusoff equation

Row | Ki (human recombinant GR; [2]) | Structure (SMILES) | Ki [1, 3] | Ki (human recombinant GR) | Ki [1]
1 | > 1 nM | CCn1nccc1S(=O)(=O)N1CCC2=Cc3c(cnn3-c3ccc(F)cc3)C[C@]2(C(=O)c2cc(C(F)(F)F)ccn2)C1 [Example 2U, (R)-(6-((1-ethyl-1H-pyrazol-5-yl)sulfonyl)-1-(4-fluorophenyl)-4,4a,5,6,7,8-hexahydro-1H-pyrazolo[3,4-g]isoquinolin-4a-yl)(4-(trifluoromethyl)pyridin-2-yl)methanone] | < 20 nM | – | –
2 | < 0.5 nM | COc1ccc(S(=O)(=O)N2CCC3=Cc4c(cnn4-c4ccc(F)cc4)C[C@]3(C(=O)c3ccccn3)C2)cn1 [Example 2R, (R)-(1-(4-fluorophenyl)-6-((6-methoxypyridin-3-yl)sulfonyl)-4,4a,5,6,7,8-hexahydro-1H-pyrazolo[3,4-g]isoquinolin-4a-yl)(pyridin-2-yl)methanone] | < 20 nM | – | –
3 | < 0.5 nM | O=C(c1nccs1)[C@]12Cc3cnn(-c4ccc(F)cc4)c3C=C1CCN(S(=O)(=O)c1ccc(N3CCCC3)nc1)C2 [Example 4, (R)-(1-(4-fluorophenyl)-6-((6-(pyrrolidin-1-yl)pyridin-3-yl)sulfonyl)-4,4a,5,6,7,8-hexahydro-1H-pyrazolo[3,4-g]isoquinolin-4a-yl)(thiazol-2-yl)methanone] | ≥ 100 nM | – | –
4 | < 0.5 nM | Cc1ccnc(C(=O)[C@]23Cc4cnn(-c5ccc(F)cc5)c4C=C2CCN(S(=O)(=O)c2ccn(C)n2)C3)c1 [Example 11AK, (R)-(1-(4-fluorophenyl)-6-((1-methyl-1H-pyrazol-3-yl)sulfonyl)-4,4a,5,6,7,8-hexahydro-1H-pyrazolo[3,4-g]isoquinolin-4a-yl)(4-methylpyridin-2-yl)methanone] | < 20 nM | – | –
5 | < 0.5 nM | Cc1cccc(S(=O)(=O)N2CCC3=Cc4c(cnn4-c4ccc(F)cc4)C[C@]3(C(=O)c3ncccn3)C2)c1 [Example 1J, (R)-(1-(4-fluorophenyl)-6-(m-tolylsulfonyl)-4,4a,5,6,7,8-hexahydro-1H-pyrazolo [3,4-g]isoquinolin-4a-yl)(pyrimidin-2-yl)methanone] | 20 to 100 nM | – | –
6 | < 0.5 nM | Cc1ccnc(C(=O)[C@]23Cc4cnn(-c5ccc(F)cc5)c4C=C2CCN(S(=O)(=O)c2cnc4c(c2)OCCN4C)C3)c1 [Example 11AM, (R)-(1-(4-fluorophenyl)-6-((4-methyl-3,4-dihydro-2H-pyrido[3,2-b][1,4]oxazin-7-yl)sulfonyl)-4,4a,5,6,7,8-hexahydro-1H-pyrazolo[3,4-g]isoquinolin-4a-yl)(4-methylpyridin-2-yl)methanone] | < 20 nM | – | –
7 | < 0.5 nM | CCn1cc(S(=O)(=O)N2CCC3=Cc4c(cnn4-c4ccc(F)cc4)C[C@]3(C(=O)c3cc(C(F)(F)F)ccn3)C2)cn1 [Example 15, (R)-(6-((1-ethyl-1H-pyrazol-4-yl)sulfonyl)-1-(4-fluorophenyl)-4,4a,5,6,7,8-hexahydro-1H-pyrazolo[3,4-g]isoquinolin-4a-yl)(4-(trifluoromethyl)pyridin-2-yl)methanone] | < 20 nM | – | –
8 | < 0.5 nM | COc1ccc(S(=O)(=O)N2CCC3=Cc4c(cnn4-c4ccc(F)cc4)C[C@]3(C(=O)c3ccccn3)C2)cc1C [Example 11B, (R)-(1-(4-fluorophenyl)-6-((4-methoxy-3-methylphenyl)sulfonyl)-4,4a,5,6,7,8-hexahydro-1H-pyrazolo[3,4-g]isoquinolin-4a-yl)(pyridin-2-yl)methanone] | < 20 nM | – | –
9 | < 0.5 nM | Cn1cc(S(=O)(=O)N2CCC3=Cc4c(cnn4-c4ccc(F)cc4)C[C@]3(C(=O)c3cc(C(F)(F)F)ccn3)C2)cn1 [Example 18, (R)-(1-(4-fluorophenyl)-6-((1-methyl-1H-pyrazol-4-yl)sulfonyl)-4,4a,5,6,7,8-hexahydro-1H-pyrazolo[3,4-g]isoquinolin-4a-yl)(4-(trifluoromethyl)pyridin-2-yl)methanone] | < 20 nM | – | –
10 | – | O=C(c1cnccn1)[C@]12Cc3cnn(-c4ccc(F)cc4)c3C=C1CCN(S(=O)(=O)c1ccc(C(F)(F)F)cc1)C2 [Example 5E, (R)-(1-(4-fluorophenyl)-6-((4-(trifluoromethyl)phenyl)sulfonyl)-4,4a,5,6,7,8-hexahydro-1H-pyrazolo[3,4-g]isoquinolin-4a-yl)(pyrazin-2-yl)methanone] | – | < 0.5 nM | 20 to 100 nM
11 | < 0.5 nM | O=C(c1ccccn1)[C@]12Cc3cnn(-c4cccnc4)c3C=C1CCN(S(=O)(=O)c1cccc(C(F)(F)F)c1)C2 [Example 15A, (R)-pyridin-2-yl(1-(pyridin-3-yl)-6-((3-(trifluoromethyl)phenyl)sulfonyl)-4,4a,5,6,7,8-hexahydro-1H-pyrazolo[3,4-g]isoquinolin-4a-yl)methanone] | 20 to 100 nM | – | –
12 | < 0.5 nM | O=C(c1ccccn1)[C@]12Cc3cnn(-c4ccc(F)cc4)c3C=C1CCN(S(=O)(=O)c1cc(F)c(F)c(F)c1)C2 [Example 11Q, (R)-(1-(4-fluorophenyl)-6-((3,4,5-trifluorophenyl)sulfonyl)-4,4a,5,6,7,8-hexahydro-1H-pyrazolo[3,4-g]isoquinolin-4a-yl)(pyridin-2-yl)methanone] | < 20 nM | – | –
13 | < 0.5 nM | Cc1ccnc(C(=O)[C@]23Cc4cnn(-c5ccc(F)cc5)c4C=C2CCN(S(=O)(=O)c2cccc(C(=O)O)c2)C3)c1 [Example 11AW, (R)-3-((1-(4-fluorophenyl)-4a-(4-methylpicolinoyl)-4a,5,7,8-tetrahydro-1H-pyrazolo[3,4-g]isoquinolin-6 (4H)-yl)sulfonyl)benzoic acid] | ≥ 100 nM | – | –
14 | 0.5 to 1 nM | Cn1cc(S(=O)(=O)N2CCC3=Cc4c(cnn4-c4ccc(F)cc4)C[C@]3(C(=O)c3cscn3)C2)cn1 [Example 11CY, (R)-(1-(4-fluorophenyl)-6-((1-methyl-1H-pyrazol-4-yl)sulfonyl)-4,4a,5,6,7,8-hexahydro-1H-pyrazolo[3,4-g]isoquinolin-4a-yl)(thiazol-4-yl)methanone] | 20 to 100 nM | – | –
15 | < 0.5 nM | Cc1[nH]ncc1S(=O)(=O)N1CCC2=Cc3c(cnn3-c3ccc(F)cc3)C[C@]2(C(=O)c2cc(C(F)(F)F)ccn2)C1 [Example 11BK, (R)-(1-(4-fluorophenyl)-6-((5-methyl-1H-pyrazol-4-yl)sulfonyl)-4,4a,5,6,7,8-hexahydro-1H-pyrazolo[3,4-g]isoquinolin-4a-yl)(4-(trifluoromethyl)pyridin-2-yl)methanone] | < 20 nM | – | –
16 | < 0.5 nM | CCn1nccc1S(=O)(=O)N1CCC2=Cc3c(cnn3-c3ccc(F)cc3)C[C@]2(C(=O)c2cscn2)C1 [Example 11CW, (R)-(6-((1-ethyl-1H-pyrazol-5-yl)sulfonyl)-1-(4-fluorophenyl)-4,4a,5,6,7,8-hexahydro-1H-pyrazolo[3,4-g]isoquinolin-4a-yl)(thiazol-4-yl)methanone] | 20 to 100 nM | – | –
17 | < 0.5 nM | Cc1ccnc(C(=O)[C@]23Cc4cnn(-c5ccc(F)cc5)c4C=C2CCN(S(=O)(=O)c2cc(F)c(F)c(F)c2)C3)c1 [Example 11X, (R)-(1-(4-fluorophenyl)-6-((3,4,5-trifluorophenyl)sulfonyl)-4,4a,5,6,7,8-hexahydro-1H-pyrazolo[3,4-g]isoquinolin-4a-yl)(4-methylpyridin-2-yl)methanone] | < 20 nM | – | –
18 | 0.5 to 1 nM | COc1cccc(S(=O)(=O)N2CCC3=Cc4c(cnn4-c4ccc(F)cc4)C[C@]3(C(=O)c3nccs3)C2)c1 [Example 12B, (R)-(1-(4-fluorophenyl)-6-((3-methoxyphenyl)sulfonyl)-4,4a,5,6,7,8-hexahydro-1H-pyrazolo[3,4-g]isoquinolin-4a-yl)(thiazol-2-yl)methanone] | 20 to 100 nM | – | –
19 | < 0.5 nM | Cc1ccc(S(=O)(=O)N2CCC3=Cc4c(cnn4-c4ccc(F)cc4)C[C@]3(C(=O)c3ccccn3)C2)c(F)c1 [Example 11E, (R)-(6-((2-fluoro-4-methylphenyl)sulfonyl)-1-(4-fluorophenyl)-4,4a,5,6,7,8-hexahydro-1H-pyrazolo[3,4-g]isoquinolin-4a-yl)(pyridin-2-yl)methanone] | 20 to 100 nM | – | –
20 | < 0.5 nM | CCc1ccc(S(=O)(=O)N2CCC3=Cc4c(cnn4-c4ccc(F)cc4)C[C@]3(C(=O)c3ccccn3)C2)cc1 [Example 2D, (R)-(6-((4-ethylphenyl)sulfonyl)-1-(4-fluorophenyl)-4,4a,5,6,7,8-hexahydro-1H-pyrazolo[3,4-g]isoquinolin-4a-yl)(pyridin-2-yl)methanone] | < 20 nM | – | –
21 | < 0.5 nM | O=C(c1ccccn1)[C@]12Cc3cnn(-c4ccc(F)cc4)c3C=C1CCN(S(=O)(=O)c1cccc(OC(F)F)c1)C2 [Example 11L, (R)-(6-((3-(difluoromethoxy)phenyl)sulfonyl)-1-(4-fluorophenyl)-4,4a,5,6,7,8-hexahydro-1H-pyrazolo[3,4-g]isoquinolin-4a-yl)(pyridin-2-yl)methanone] | < 20 nM | – | –
